ChEMBL document CHEMBL1201862, “PubChem BioAssay data set” (2004)
Activity calls are given as the source filed them.

Columns and labels:
[1] = target: Broad substrate specificity ATP-binding cassette transporter ABCG2 (Homo sapiens, UniProt Q9UNQ0); assay: blockers of JC-1 export by ABCG2 – Ig-MXP3 cells, flow cytometry, dose response (AID 1690); format: functional
Melanocortin receptor 4 = Melanocortin receptor 4 (Homo sapiens, UniProt P32245); format: functional, cell-based;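 also: Cell-based assay with luminescence read-out, confirmatory dose-response testing for agonist activity of biased ligands at MC4R; human U2OS cells with tagged receptor and beta-arrestin; potency of agonists that increase receptor coupling to beta-arrestin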
[2] = viability loss in HEK293T cells – cell-based, cherry-picks, cytotoxicity control for HIV Vif inhibitor project, dose response (AID 652208); format: functional
Beta-lactamase [3] = target: Beta-lactamase (Salmonella choleraesuis (strain SC-B67), UniProt Q5J463); assay: Epi-absorbance-based counterscreen for selective VIM-2 inhibitors: dose response biochemical high throughput screening assay to identify inhibitors of TEM-1 serine-beta-lactamase.
Beta-lactamase [4] = target: T1, Beta-lactamase (Pseudomonas aeruginosa, UniProt Q79MP6); assay: inhibition of IMP-1 beta-lactamase activity – biochemical, epi-absorbance, selectivity assay for VIM-2 inhibitor project, dose response (AID 1920)
Beta Lactamase [5] = target: T2, Beta Lactamase (Pseudomonas aeruginosa, UniProt Q932Y6); assay: concentration-dependent VIM-2 enzyme inhibition – biochemical, epi-absorbance readout, selective inhibitors, dose response (AID 1919)
Beta-lactamase [6] = target: T1, Beta-lactamase; assay: […] counterscreen for selective VIM-2 inhibitors: dose response biochemical high throughput screening assay to identify inhibitors of IMP-1 metallo-beta-lactamase.
Beta Lactamase [7] = target: T2, Beta Lactamase; assay: VIM-2 CCF2 hydrolysis inhibition, assay artifact filter – biochemical, FRET readout, CCF2 substrate, artefact control for selective VIM-2 inhibitor project, dose response (AID 1926)
Fatty acid synthase [8] = target: T3, Fatty acid synthase (Homo sapiens, UniProt P49327); assay: inhibition of human FAS-TE enzyme activity – biochemical, endpoint fluorescence intensity, uHTS hits, dose response (AID 624327); format: functional;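 also: fluorescence from hydrolysis of an O-methyl fluorescein acyl ester substrate by the enzyme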
Fatty acid synthase [9] = target: T3, Fatty acid synthase; assay: inhibition of human FAS-TE enzyme activity – biochemical, kinetic fluorescence intensity, dose response (AID 624326); format: functional;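 also: rate of fluorescence rise from hydrolysis of a fluorogenic O-methyl fluorescein ester substrate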
Albumin = Albumin (Bos taurus, UniProt P02769); assay: Counterscreen for inhibitors of T-cell receptor (TCR)-CD3 interaction: Fluorescence-based biochemical high throughput dose response assay to identify inhibitors of T-cell receptor (TCR)-CD3 interaction using a TAMRA-labeled BSA probe.; format: functional
[10] = target: T4, Tyrosine-protein phosphatase non-receptor type 7 (Homo sapiens, UniProt P35236); assay: HePTP tyrosine phosphatase activity blockers – biochemical, absorbance, leukemia target, primary screen (AID 521); format: functional
T4 sequence (P35236 whole entry): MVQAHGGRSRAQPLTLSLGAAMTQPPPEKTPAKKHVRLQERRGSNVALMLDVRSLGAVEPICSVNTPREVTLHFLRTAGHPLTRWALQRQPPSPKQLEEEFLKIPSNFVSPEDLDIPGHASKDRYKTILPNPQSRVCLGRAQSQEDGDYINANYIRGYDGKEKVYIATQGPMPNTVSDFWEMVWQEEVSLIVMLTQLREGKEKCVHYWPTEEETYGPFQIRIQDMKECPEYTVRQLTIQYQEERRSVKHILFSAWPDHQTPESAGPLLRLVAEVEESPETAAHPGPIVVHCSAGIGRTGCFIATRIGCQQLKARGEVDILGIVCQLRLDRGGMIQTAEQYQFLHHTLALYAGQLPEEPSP

Bcl-2-like protein 10 = Bcl-2-like protein 10 (Homo sapiens, UniProt Q9HD36); assay: Bcl-B/TR3 peptide binding disruption – biochemical, fluorescence polarization, FITC-TR3 peptide, selectivity assay for Bfl-1 inhibitor project, primary screen (AID 748);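 also: fluorescence polarization from a fluorescein-labelled TR3 peptide binding purified Bcl-B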
Estrogen receptor = target: T5, Estrogen receptor (Homo sapiens, UniProt P03372);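 also: potency for inhibiting coactivator peptide recruitment to the receptor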
T5 sequence (P03372 whole entry): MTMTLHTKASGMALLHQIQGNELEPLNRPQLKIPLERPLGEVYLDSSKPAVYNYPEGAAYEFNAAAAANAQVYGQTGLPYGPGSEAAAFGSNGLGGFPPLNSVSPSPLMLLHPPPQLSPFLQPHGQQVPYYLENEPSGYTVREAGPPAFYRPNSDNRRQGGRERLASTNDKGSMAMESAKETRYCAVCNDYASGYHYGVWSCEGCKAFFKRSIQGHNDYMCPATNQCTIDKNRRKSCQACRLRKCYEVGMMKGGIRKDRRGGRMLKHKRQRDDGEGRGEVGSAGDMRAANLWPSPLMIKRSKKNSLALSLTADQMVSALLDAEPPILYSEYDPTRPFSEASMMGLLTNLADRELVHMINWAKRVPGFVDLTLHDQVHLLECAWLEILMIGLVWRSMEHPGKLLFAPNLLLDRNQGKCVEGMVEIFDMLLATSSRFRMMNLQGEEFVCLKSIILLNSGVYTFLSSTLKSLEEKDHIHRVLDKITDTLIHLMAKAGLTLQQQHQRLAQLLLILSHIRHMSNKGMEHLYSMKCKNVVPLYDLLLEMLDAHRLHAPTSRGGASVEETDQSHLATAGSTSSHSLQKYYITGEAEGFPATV

Estrogen receptor beta [11] = target: T6, Estrogen receptor beta (Homo sapiens, UniProt Q92731);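 also: recombinant ER-beta bound to coactivator SRC1 peptide in presence of estradiol agonist; inhibitors block coactivator peptide binding and lower the FRET signal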
Estrogen receptor beta [12] = target: T6, Estrogen receptor beta; assay: blockers of SRC-3 recruitment to ERβ – biochemical, ELISA, streptavidin-HRP readout, orthogonal assay, confirmation (AID 1060)
[13] = target: DNA (cytosine-5)-methyltransferase 1 (Homo sapiens, UniProt P26358); assay: inhibition of DNA methylation by DNMT1 – biochemical, fluorescent molecular beacon, confirmation (AID 602386); format: functional
[14] = target: T7, Tyrosine-protein phosphatase non-receptor type 11 (Homo sapiens, UniProt Q06124); assay: PTPN11 enzyme inhibitors – biochemical, selectivity assay for STEP inhibitor project, dose response (AID 602367); format: functional; conditions: read-out: IC50_Mean
T7 sequence (Q06124 whole entry): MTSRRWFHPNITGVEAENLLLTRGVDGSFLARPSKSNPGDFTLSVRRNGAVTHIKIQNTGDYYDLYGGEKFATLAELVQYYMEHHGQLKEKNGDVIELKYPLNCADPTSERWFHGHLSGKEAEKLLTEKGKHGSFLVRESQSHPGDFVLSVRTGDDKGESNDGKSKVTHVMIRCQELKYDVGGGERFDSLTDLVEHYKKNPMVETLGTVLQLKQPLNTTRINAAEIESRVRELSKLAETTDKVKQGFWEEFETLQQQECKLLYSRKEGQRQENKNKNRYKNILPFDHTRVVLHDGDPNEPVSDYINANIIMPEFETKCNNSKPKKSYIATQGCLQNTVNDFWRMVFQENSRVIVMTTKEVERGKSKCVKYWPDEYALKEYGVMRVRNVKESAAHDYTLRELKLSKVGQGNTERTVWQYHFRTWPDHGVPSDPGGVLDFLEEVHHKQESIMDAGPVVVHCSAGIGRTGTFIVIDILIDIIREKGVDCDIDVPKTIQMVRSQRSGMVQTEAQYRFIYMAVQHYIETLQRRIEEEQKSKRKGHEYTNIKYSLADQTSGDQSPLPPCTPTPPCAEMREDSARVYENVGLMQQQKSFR

[15] = target: T8, Tyrosine-protein phosphatase non-receptor type 5 (Homo sapiens, UniProt P54829); assay: PTPN5 enzyme inhibition – biochemical, fluorescence intensity, uHTS hits, confirmation (AID 602372); format: functional; conditions: read-out: IC50_Mean
T8 sequence (P54829 whole entry): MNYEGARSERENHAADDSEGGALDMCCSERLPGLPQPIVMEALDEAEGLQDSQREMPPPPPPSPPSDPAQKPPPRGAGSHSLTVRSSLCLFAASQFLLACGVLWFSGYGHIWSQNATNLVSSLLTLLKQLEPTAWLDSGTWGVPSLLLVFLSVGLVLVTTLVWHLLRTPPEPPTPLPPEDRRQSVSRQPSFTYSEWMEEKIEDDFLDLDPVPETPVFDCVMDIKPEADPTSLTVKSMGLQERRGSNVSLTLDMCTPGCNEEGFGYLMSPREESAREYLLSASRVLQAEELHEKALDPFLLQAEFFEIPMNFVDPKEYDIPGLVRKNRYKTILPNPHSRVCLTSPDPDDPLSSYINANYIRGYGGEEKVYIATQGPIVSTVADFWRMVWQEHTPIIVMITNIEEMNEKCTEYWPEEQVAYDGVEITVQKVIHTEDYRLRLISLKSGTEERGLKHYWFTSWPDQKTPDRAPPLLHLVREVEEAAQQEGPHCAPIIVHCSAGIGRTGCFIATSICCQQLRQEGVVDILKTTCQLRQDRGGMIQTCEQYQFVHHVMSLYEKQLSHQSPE

[16] = target: Dual specificity protein phosphatase 3 (Homo sapiens, UniProt P51452); assay: VHR phosphatase inhibition, dose response, selectivity assay for STEP inhibitor project, biochemical (AID 602374); format: functional; conditions: read-out: IC50_Mean
[17] = target: T9, Tyrosine-protein phosphatase non-receptor type 22 (Homo sapiens, UniProt Q9Y2R2); assay: lymphoid phosphatase LYP inhibitors – biochemical, selectivity assay for STEP inhibitor project, dose response (AID 624241); format: functional
T9 sequence (Q9Y2R2 whole entry): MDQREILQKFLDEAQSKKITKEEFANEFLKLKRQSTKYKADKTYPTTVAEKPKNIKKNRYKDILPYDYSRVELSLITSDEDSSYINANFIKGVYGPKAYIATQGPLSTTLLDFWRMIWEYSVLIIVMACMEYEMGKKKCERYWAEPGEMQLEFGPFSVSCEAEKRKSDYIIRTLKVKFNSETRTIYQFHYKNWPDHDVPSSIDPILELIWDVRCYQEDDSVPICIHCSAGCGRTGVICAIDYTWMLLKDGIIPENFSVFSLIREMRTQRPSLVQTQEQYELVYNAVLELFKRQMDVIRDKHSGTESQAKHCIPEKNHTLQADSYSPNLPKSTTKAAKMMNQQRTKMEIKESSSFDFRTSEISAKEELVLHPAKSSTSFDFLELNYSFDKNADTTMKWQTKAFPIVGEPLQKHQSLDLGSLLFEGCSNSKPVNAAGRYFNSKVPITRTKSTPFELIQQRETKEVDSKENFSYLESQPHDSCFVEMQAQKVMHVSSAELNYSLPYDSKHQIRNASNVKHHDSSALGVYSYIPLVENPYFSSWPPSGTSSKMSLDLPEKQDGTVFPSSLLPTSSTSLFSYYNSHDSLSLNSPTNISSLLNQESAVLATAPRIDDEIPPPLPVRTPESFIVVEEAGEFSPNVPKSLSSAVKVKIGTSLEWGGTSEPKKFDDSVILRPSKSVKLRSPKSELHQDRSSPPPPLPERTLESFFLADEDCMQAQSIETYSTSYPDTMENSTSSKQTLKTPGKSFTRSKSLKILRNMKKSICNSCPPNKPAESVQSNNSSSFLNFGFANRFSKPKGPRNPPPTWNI

[18] = HIV-1 Vif–A3G interaction blockers – biochemical, TR-FRET, GST-Vif 1-94, biotin-A3G peptide, dose response retest, primary screen (AID 1117319); format: functional;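 also: TR-FRET signal of purified GST-Vif binding a biotinylated A3G peptide; inhibitors lower the FRET signal by blocking Vif and A3G binding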
[19] = target: ADP-ribosylation factor GTPase-activating protein 1 (Rattus norvegicus, UniProt Q62848); assay: Fluorescence polarization-based biochemical high throughput dose response screening assay to identify inhibitors of ADP-ribosylation factor GTPase activating protein 1 (ARFGAP1).; format: functional
[20] = target: Arf-GAP with SH3 domain, ANK repeat and PH domain-containing protein 1 (Homo sapiens, UniProt Q9ULH1); format: functional;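 also: biochemical fluorescence polarization dose–response screen measuring inhibition of ASAP1; ASAP1 GAP domain stimulating GTP hydrolysis by truncated human ARF1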
Beta-galactosidase = Beta-galactosidase (Escherichia coli, UniProt Q8VNN2); assay: Dose response counterscreen for EBI2 assay utilizing the enzyme, b-galactosidase.; format: functional
[21] = target: Fructose-bisphosphate aldolase (Mycobacterium tuberculosis, UniProt P9WQA3); assay: Fluorescence-based biochemical high throughput dose response assay for inhibitors of the fructose-bisphosphate aldolase (FBA) of M. tuberculosis.; format: functional
Large T antigen = Large T antigen (Simian virus 40, UniProt P03070); format: functional, Betapolyomavirus macacae;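 also: Confirmatory-stage PubChem screen for compounds that inhibit SV40 T antigen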
[22] = target: Long-chain-fatty-acid--AMP ligase FadD28 (Mycobacterium tuberculosis, UniProt P9WQ59); assay: Fluorescence polarization aasay to screen for inhibitors that compete for the binding of FadD28 to a bisubstrate Measured in Biochemical System Using Plate Reader - 2147-01_Inhibitor_Dose_CherryPick_Activity.; format: functional, Mycobacterium tuberculosis H37Rv

T1 sequence (Q79MP6 whole entry): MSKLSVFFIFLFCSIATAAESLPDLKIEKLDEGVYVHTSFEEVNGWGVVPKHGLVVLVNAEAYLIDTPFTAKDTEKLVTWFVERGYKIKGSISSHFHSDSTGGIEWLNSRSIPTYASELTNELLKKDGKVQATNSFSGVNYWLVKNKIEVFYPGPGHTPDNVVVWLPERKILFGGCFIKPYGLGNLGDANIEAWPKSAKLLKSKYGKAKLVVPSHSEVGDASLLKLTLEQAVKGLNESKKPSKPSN
T3 sequence (P49327 whole entry): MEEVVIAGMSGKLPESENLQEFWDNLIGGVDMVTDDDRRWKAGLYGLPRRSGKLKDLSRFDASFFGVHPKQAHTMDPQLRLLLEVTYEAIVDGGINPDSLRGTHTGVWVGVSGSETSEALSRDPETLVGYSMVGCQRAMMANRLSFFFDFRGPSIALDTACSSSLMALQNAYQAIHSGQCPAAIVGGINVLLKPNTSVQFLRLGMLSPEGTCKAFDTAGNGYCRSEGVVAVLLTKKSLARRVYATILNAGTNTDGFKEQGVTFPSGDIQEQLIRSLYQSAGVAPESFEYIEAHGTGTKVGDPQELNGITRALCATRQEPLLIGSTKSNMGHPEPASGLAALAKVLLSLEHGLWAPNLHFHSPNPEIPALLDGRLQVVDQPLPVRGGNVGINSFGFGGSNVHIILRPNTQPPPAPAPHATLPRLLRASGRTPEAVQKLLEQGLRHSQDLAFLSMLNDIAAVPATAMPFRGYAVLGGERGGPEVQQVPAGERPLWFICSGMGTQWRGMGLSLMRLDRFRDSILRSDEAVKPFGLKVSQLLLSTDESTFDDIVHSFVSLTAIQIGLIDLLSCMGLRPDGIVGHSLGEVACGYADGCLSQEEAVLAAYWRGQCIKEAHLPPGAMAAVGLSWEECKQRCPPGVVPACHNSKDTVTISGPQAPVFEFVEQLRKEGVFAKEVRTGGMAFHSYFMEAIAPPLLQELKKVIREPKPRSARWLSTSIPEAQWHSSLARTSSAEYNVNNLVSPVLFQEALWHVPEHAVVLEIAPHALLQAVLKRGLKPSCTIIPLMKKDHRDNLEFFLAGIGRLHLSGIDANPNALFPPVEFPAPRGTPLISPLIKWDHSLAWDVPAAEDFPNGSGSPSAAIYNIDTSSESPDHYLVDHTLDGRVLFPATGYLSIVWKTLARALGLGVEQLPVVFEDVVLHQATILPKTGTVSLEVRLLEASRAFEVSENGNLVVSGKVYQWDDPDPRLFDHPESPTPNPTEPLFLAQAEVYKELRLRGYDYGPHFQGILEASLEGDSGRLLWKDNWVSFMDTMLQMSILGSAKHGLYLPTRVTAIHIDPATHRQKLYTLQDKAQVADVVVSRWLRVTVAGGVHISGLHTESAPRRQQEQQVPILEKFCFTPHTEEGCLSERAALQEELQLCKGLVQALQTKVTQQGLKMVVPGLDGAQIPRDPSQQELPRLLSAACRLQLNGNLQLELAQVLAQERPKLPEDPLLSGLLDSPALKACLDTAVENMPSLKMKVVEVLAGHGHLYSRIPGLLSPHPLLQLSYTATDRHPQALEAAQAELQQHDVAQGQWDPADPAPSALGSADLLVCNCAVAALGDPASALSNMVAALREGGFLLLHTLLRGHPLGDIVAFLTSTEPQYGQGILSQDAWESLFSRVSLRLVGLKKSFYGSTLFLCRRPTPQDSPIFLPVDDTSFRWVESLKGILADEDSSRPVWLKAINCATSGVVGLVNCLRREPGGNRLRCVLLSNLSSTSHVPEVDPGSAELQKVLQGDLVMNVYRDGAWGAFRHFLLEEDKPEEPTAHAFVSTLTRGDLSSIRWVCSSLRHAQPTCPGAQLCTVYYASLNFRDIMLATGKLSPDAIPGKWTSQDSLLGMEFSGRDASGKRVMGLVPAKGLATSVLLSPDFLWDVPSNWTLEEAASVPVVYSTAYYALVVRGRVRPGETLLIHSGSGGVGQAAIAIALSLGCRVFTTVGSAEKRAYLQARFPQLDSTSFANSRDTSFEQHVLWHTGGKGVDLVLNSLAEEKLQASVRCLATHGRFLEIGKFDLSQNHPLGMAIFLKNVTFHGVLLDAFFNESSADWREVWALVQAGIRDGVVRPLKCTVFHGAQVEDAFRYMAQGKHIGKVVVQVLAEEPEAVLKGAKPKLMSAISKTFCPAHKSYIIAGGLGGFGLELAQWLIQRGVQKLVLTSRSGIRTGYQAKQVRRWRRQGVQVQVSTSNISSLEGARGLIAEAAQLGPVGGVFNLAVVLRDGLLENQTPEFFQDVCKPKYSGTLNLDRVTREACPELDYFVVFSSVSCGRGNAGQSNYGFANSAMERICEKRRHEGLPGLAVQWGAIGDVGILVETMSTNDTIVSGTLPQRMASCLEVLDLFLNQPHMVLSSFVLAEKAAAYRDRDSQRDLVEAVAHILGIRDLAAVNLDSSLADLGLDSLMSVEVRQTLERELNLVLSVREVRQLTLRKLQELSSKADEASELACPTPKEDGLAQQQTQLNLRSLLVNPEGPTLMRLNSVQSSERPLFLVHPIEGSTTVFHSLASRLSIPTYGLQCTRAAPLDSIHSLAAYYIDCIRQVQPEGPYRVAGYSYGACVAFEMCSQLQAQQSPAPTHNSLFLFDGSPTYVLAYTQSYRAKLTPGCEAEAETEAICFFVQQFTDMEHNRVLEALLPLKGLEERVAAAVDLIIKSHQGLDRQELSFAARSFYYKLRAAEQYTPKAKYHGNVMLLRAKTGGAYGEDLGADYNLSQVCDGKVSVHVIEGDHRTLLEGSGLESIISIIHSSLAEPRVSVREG
T6 sequence (Q92731 whole entry): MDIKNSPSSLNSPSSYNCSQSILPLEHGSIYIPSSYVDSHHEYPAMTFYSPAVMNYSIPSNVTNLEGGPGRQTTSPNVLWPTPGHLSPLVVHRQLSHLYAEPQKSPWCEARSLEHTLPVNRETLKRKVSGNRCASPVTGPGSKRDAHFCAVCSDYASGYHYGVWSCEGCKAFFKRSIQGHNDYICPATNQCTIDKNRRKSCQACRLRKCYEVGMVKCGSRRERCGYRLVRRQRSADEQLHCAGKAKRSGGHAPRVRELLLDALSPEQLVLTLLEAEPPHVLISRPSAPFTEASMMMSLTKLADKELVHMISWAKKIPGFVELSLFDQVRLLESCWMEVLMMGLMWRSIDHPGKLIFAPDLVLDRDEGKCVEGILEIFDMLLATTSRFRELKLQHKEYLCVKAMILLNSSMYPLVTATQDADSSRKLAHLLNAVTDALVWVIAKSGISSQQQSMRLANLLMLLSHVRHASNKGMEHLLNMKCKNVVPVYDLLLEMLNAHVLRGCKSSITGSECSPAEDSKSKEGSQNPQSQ
T2 sequence (Q932Y6 whole entry): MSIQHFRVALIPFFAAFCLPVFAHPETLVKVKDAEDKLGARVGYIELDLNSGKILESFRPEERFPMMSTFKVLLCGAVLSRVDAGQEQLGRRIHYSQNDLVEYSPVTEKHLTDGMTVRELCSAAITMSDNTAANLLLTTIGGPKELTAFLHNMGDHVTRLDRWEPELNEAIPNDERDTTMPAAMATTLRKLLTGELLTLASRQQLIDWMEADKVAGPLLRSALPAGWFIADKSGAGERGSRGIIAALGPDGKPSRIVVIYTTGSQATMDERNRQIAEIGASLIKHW
Sequence of Arf-GAP with SH3 domain, ANK repeat and PH domain-containing protein 1 (Q9ULH1 whole entry, the tested form may be a part): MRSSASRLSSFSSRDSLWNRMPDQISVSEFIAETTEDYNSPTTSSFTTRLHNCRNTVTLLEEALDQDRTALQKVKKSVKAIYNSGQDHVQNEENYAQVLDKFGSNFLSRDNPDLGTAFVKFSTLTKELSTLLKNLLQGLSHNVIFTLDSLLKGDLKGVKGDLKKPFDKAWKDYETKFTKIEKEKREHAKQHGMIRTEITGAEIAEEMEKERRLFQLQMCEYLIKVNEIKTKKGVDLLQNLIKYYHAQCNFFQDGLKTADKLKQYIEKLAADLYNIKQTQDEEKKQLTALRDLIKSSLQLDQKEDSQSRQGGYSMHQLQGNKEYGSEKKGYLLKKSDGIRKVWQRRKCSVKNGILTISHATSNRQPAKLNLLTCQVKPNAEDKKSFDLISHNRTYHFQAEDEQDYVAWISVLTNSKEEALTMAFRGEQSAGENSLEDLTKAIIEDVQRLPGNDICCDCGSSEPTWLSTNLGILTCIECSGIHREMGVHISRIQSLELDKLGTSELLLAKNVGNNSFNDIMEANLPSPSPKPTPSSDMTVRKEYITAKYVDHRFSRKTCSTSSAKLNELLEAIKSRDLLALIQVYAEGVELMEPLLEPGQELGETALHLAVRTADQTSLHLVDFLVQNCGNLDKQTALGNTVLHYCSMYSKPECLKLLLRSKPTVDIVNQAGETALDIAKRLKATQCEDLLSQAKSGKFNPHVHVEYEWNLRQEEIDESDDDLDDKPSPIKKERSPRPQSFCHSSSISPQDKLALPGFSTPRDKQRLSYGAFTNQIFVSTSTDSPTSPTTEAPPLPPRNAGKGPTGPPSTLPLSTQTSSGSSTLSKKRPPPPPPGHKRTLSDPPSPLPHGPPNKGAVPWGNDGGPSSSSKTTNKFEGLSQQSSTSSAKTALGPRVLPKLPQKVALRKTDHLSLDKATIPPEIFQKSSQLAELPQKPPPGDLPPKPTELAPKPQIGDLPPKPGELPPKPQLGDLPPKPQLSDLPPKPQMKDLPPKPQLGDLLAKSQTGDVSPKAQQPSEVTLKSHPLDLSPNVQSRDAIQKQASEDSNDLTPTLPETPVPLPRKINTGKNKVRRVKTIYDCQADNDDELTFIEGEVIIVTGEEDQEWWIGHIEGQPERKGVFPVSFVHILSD
Sequence of Dual specificity protein phosphatase 3 (P51452 whole entry): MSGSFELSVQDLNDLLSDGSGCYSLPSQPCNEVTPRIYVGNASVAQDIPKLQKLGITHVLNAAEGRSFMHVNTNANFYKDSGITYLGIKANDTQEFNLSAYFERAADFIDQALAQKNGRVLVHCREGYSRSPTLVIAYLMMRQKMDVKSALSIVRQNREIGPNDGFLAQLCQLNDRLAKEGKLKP

Compound: COc1cc(C(=O)Nc2ccc(S(=O)(=O)NC(C)C)cc2)cc(OC)c1OC
- EC50 [1]: 1.32 µM (inactive)

Compound: NC(CCc1ccccc1)c1csc(Nc2ccc(C(=O)c3ccccc3)cc2)n1 (stereo not drawn)
- EC50 (Melanocortin receptor 4): > 89.2 µM (inactive)
- AC50 [2]: 27.7 µM (active)

Compound: CN(C)S(=O)(=O)c1cccc(NC(=S)N/N=C/C2CC=CCC2)c1 (stereo not drawn)
- IC50 (Beta-lactamase [3]): > 59.6 µM (inactive)
- IC50 (Beta-lactamase [4]): > 59.6 µM (inactive)
- IC50 (Beta Lactamase [5]): 1 µM (active)
- IC50 (Beta-lactamase [6]): > 59.6 µM (inactive)
- IC50 (Beta Lactamase [7]): 335 nM (active)

Compound: COc1cc([N+](=O)[O-])cc(/C=N/NC(=O)c2cc(C)nc3ccccc23)c1O
- IC50 (Fatty acid synthase [8]): 15.5 µM (active)
- IC50 (Fatty acid synthase [9]): 11.7 µM (active)
- IC50 (Albumin): > 94.1 µM (inactive)

Compound: COc1ccc(OC)c(N2C(=O)[C@@H]3C(c4ccccc4Cl)=NO[C@@H]3C2=O)c1
- IC50 [10]: 8.25 µM (active)
- IC50 (Bcl-2-like protein 10): 14.9 µM (active)
- IC50 (Estrogen receptor): 9.78 µM (active)
- IC50 (Estrogen receptor beta [11]): 2.49 µM (active)
- IC50 (Estrogen receptor beta [12]): > 50 µM (not active)
- IC50 [13]: 4.35 µM (active)
- IC50 [14]: 469 nM (active)
- IC50 [15]: 24.4 µM (inactive)
- IC50 [16]: 833 nM (active)
- IC50 [17]: > 100 µM (inactive)
- IC50 [18]: > 100 µM (active)

Compound: Cc1ccc2nc(SCC(=O)N3CC(C)OC(C)C3)nc(=O)n2c1 (stereo not drawn)
- IC50 [19]: 10.7 µM (inactive)
- IC50 [20]: 20.9 µM (inactive)

Compound: COc1cccc(C(=O)N2CCN(C(=O)COc3ccc4ccccc4c3)CC2)c1
- IC50 (Beta-galactosidase): > 80 µM (inactive)

Compound: COc1ccc2nc(C)cc(C(=O)O)c2c1
- IC50 [21]: 1.16 µM (active)

Compound: Cc1[nH]c2ccccc2c1-c1csc(NC(=O)CSCC(=O)O)n1
- IC50 (Large T antigen): 26.2 µM (active)
- AC50 [22]: > 100 µM (inactive)
